The text below walks through data of patent US20220177508A1, “C10-Cyclic Substituted 13-Membered Macrolides and Uses Thereof” (Zikani Therapeutics, Inc., priority 2018, published 2022).

Common to all, as to format: cell-based
The subject of one test is K. pneumoniae MP-546. The experiment in a line: Broth dilution MIC determination (CLSI), K. pneumoniae MP-546. As to conditions: Klebsiella pneumoniae, MP546; strain MP-546, broth dilution. (In general: Dilution methods test growth across graded concentrations, often in twofold steps.)
The test system of the next test is E. coli MP-4. The experiment in a line: Broth dilution MIC determination (CLSI), E. coli MP-4. As to conditions: Escherichia coli, MP4; strain MP-4, broth dilution; read-out: MIC E. coli MP-4.
The next test concerns S. aureus MP-12. The experiment in a line: Broth dilution MIC determination (CLSI), S. aureus MP-12. As to conditions: Staphylococcus aureus, MP12; strain MP-12, broth dilution.
The subject of another test is A. baumannii MP-15. The experiment in a line: Broth dilution MIC determination (CLSI), A. baumannii MP-15. As to conditions: Acinetobacter baumannii, MP15; strain MP-15, broth dilution; read-out: MIC A. baumanii MP-15.
A further test relates to P. aeruginosa MP-3. Put plainly: Broth dilution MIC determination (CLSI), P. aeruginosa MP-3. As to conditions: Pseudomonas aeruginosa, MP3; strain MP-3, broth dilution.

Molecules are shown by their SMILES. In brackets after ≈: the same amount, converted by molar mass.

A word on the MIC: it is the lowest concentration found to suppress growth. In the case of `CCN(CC)[C@H](C)C(=O)N1CC([C@H]2COC(=O)C(C)(C)C(=O)[C@H](C)[C@@H](O[C@@H]3O[C@H](C)C[C@H](N(C)C)[C@H]3O)[C@](C)(OC)C[C@@H](C)CN2C)C1` [Compound 74, (3S,6R,8R,9R,10R)-3-(1-(diethyl-D-alanyl)azetidin-3-yl)-9-(((2S,3R,4S,6R)-4-(dimethylamino)-3-hydroxy-6-methyltetrahydro-2H-pyran-2-yl)oxy)-8-methoxy-4,6,8,10,12,12-hexamethyl-1-oxa-4-azacyclotridecane-11,13-dione], the MIC with K. pneumoniae MP-546 is 4 to 32 µg/mL (≈ 5.86 to 46.9 µM); in the test with E. coli MP-4, under 4 µg/mL; in the test with S. aureus MP-12 it was over 32 µg/mL; in the test with A. baumannii MP-15, over 32 µg/mL; in the test with P. aeruginosa MP-3, over 32 µg/mL.
Take `CCCN1CC([C@@H]2COC(=O)C(C)(C)C(=O)[C@H](C)[C@@H](O[C@@H]3O[C@H](C)C[C@H](N(C)C)[C@H]3O)[C@](C)(OC)C[C@@H](C)CN2C)C1` [Compound 76, (3R,6R,8R,9R,10R)-9-(((2S,3R,4S,6R)-4-(dimethylamino)-3-hydroxy-6-methyltetrahydro-2H-pyran-2-yl)oxy)-8-methoxy-4,6,8,10,12,12-hexamethyl-3-(1-propylazetidin-3-yl)-1-oxa-4-azacyclotridecane-11,13-dione]: the minimum inhibitory concentration (MIC) against K. pneumoniae MP-546 was under 4 µg/mL; with E. coli MP-4 it was under 4 µg/mL; with S. aureus MP-12, 4 to 32 µg/mL (≈ 6.69 to 53.5 µM); in the test with A. baumannii MP-15 it was over 32 µg/mL; in the test with P. aeruginosa MP-3, over 32 µg/mL.
Regarding `CO[C@]1(C)C[C@@H](C)CN(C)[C@H]([C@@H]2CCCNC2)COC(=O)C(C)(C)C(=O)[C@H](C)[C@H]1O[C@@H]1O[C@H](C)C[C@H](N(C)C)[C@H]1O` [Compound 77], the MIC was 4 to 32 µg/mL (≈ 6.85 to 54.8 µM) with K. pneumoniae MP-546; 4 to 32 µg/mL (≈ 6.85 to 54.8 µM) with E. coli MP-4; over 32 µg/mL in the test on S. aureus MP-12; over 32 µg/mL in the test on A. baumannii MP-15; over 32 µg/mL against P. aeruginosa MP-3.
For `CCCN1C2CCC1CC([C@@H]1COC(=O)C(C)(C)C(=O)[C@H](C)[C@@H](O[C@@H]3O[C@H](C)C[C@H](N(C)C)[C@H]3O)[C@](C)(OC)C[C@@H](C)CN1C)C2` (stereo partly drawn) [Compound 79, (3R,6R,8R,9R,10R)-9-(((2S,3R,4S,6R)-4-(dimethylamino)-3-hydroxy-6-methyltetrahydro-2H-pyran-2-yl)oxy)-8-methoxy-4,6,8,10,12,12-hexamethyl-3-(8-propyl-8-azabicyclo[3.2.1]octan-3-yl)-1-oxa-4-azacyclotridecane-11,13-dione], the MIC is 4 to 32 µg/mL (≈ 6.14 to 49.1 µM) against K. pneumoniae MP-546; under 4 µg/mL with E. coli MP-4; under 4 µg/mL with S. aureus MP-12; over 32 µg/mL in the test on A. baumannii MP-15; over 32 µg/mL with P. aeruginosa MP-3.
As to `CO[C@]1(C)C[C@@H](C)CN(C)[C@H](C2CCNCC2)COC(=O)C(C)(C)C(=O)[C@H](C)[C@H]1O[C@@H]1O[C@H](C)C[C@H](N(C)C)[C@H]1O` [Compound 80, (3R,6R,8R,9R,10R)-9-(((2S,3R,4S,6R)-4-(dimethylamino)-3-hydroxy-6-methyltetrahydro-2H-pyran-2-yl)oxy)-8-methoxy-4,6,8,10,12,12-hexamethyl-3-(piperidin-4-yl)-1-oxa-4-azacyclotridecane-11,13-dione], the MIC is 4 to 32 µg/mL (≈ 6.85 to 54.8 µM) against K. pneumoniae MP-546; under 4 µg/mL with E. coli MP-4; 4 to 32 µg/mL (≈ 6.85 to 54.8 µM) with S. aureus MP-12; over 32 µg/mL in the test with A. baumannii MP-15; over 32 µg/mL with P. aeruginosa MP-3.
In the case of `CO[C@]1(C)C[C@@H](C)CN(C)[C@@H](C2CN(CC(C)C)C2)COC(=O)C(C)(C)C(=O)[C@H](C)[C@H]1O[C@@H]1O[C@H](C)C[C@H](N(C)C)[C@H]1O` [Compound 81, (3S,6R,8R,9R,10R)-9-(((2S,3R,4S,6R)-4-(dimethylamino)-3-hydroxy-6-methyltetrahydro-2H-pyran-2-yl)oxy)-3-(1-isobutylazetidin-3-yl)-8-methoxy-4,6,8,10,12,12-hexamethyl-1-oxa-4-azacyclotridecane-11,13-dione], the MIC was 4 to 32 µg/mL (≈ 6.54 to 52.3 µM) in the test with K. pneumoniae MP-546; under 4 µg/mL in the test on E. coli MP-4; over 32 µg/mL in the test on S. aureus MP-12; over 32 µg/mL in the test with A. baumannii MP-15; over 32 µg/mL with P. aeruginosa MP-3.
Take `CO[C@]1(C)C[C@@H](C)CN(C)[C@@H]([C@H]2CC[C@H](N(C)C(=O)CN(C)C)CC2)COC(=O)C(C)(C)C(=O)[C@H](C)[C@H]1O[C@@H]1O[C@H](C)C[C@H](N(C)C)[C@H]1O` [Compound 82, 2-(dimethylamino)-N-((1S,4r)-4-((3S,6R,8R,9R,10R)-9-(((2S,3R,4S,6R)-4-(dimethylamino)-3-hydroxy-6-methyltetrahydro-2H-pyran-2-yl)oxy)-8-methoxy-4,6,8,10,12,12-hexamethyl-11,13-dioxo-1-oxa-4-azacyclotridecan-3-yl)cyclohexyl)-N-methylacetamide]: the MIC against K. pneumoniae MP-546, in the test with E. coli MP-4, in the test on S. aureus MP-12, in the test on A. baumannii MP-15 and in the test on P. aeruginosa MP-3 was over 32 µg/mL in each case.
As for `CO[C@]1(C)C[C@@H](C)CN(C)[C@H](C2CCN(C(=O)CN(C)C)CC2)COC(=O)C(C)(C)C(=O)[C@H](C)[C@H]1O[C@@H]1O[C@H](C)C[C@H](N(C)C)[C@H]1O` [Compound 85, (3R,6R,8R,9R,10R)-9-(((2S,3R,4S,6R)-4-(dimethylamino)-3-hydroxy-6-methyltetrahydro-2H-pyran-2-yl)oxy)-3-(1-(dimethylglycyl)piperidin-4-yl)-8-methoxy-4,6,8,10,12,12-hexamethyl-1-oxa-4-azacyclotridecane-11,13-dione], the MIC against K. pneumoniae MP-546 was 4 to 32 µg/mL (≈ 5.98 to 47.8 µM); with E. coli MP-4, under 4 µg/mL; in the test on S. aureus MP-12, over 32 µg/mL; in the test with A. baumannii MP-15, over 32 µg/mL; against P. aeruginosa MP-3, over 32 µg/mL.
Turning to `CO[C@]1(C)C[C@@H](C)CN(C)[C@H](C2CC3CCC(C2)N3CC(C)C)COC(=O)C(C)(C)C(=O)[C@H](C)[C@H]1O[C@@H]1O[C@H](C)C[C@H](N(C)C)[C@H]1O` (stereo partly drawn) [Compound 87, (3R,6R,8R,9R,10R)-9-(((2S,3R,4S,6R)-4-(dimethylamino)-3-hydroxy-6-methyltetrahydro-2H-pyran-2-yl)oxy)-3-(8-isobutyl-8-azabicyclo[3.2.1]octan-3-yl)-8-methoxy-4,6,8,10,12,12-hexamethyl-1-oxa-4-azacyclotridecane-11,13-dione], the minimal inhibitory concentration (MIC) is 4 to 32 µg/mL (≈ 6.01 to 48.1 µM) in the test on K. pneumoniae MP-546; under 4 µg/mL in the test with E. coli MP-4; under 4 µg/mL with S. aureus MP-12; over 32 µg/mL in the test with A. baumannii MP-15; over 32 µg/mL against P. aeruginosa MP-3.
In the case of `CO[C@]1(C)C[C@@H](C)CN(C)[C@H](C2CCCCC2)COC(=O)C(C)(C)C(=O)[C@H](C)[C@H]1O[C@@H]1O[C@H](C)C[C@H](N(C)C)[C@H]1O` [Compound 88, (3R,6R,8R,9R,10R)-3-cyclohexyl-9-(((2S,3R,4S,6R)-4-(dimethylamino)-3-hydroxy-6-methyltetrahydro-2H-pyran-2-yl)oxy)-8-methoxy-4,6,8,10,12,12-hexamethyl-1-oxa-4-azacyclotridecane-11,13-dione], the MIC against K. pneumoniae MP-546, in the test with E. coli MP-4, against S. aureus MP-12, with A. baumannii MP-15 and in the test on P. aeruginosa MP-3 was over 32 µg/mL each time.
On to `CO[C@]1(C)C[C@@H](C)CN(C)[C@@H]([C@H]2CCCN(C)C2)COC(=O)C(C)(C)C(=O)[C@H](C)[C@H]1O[C@@H]1O[C@H](C)C[C@H](N(C)C)[C@H]1O` [Compound 89, (3S,6R,8R,9R,10R)-9-(((2S,3R,4S,6R)-4-(dimethylamino)-3-hydroxy-6-methyltetrahydro-2H-pyran-2-yl)oxy)-8-methoxy-4,6,8,10,12,12-hexamethyl-3-((S)-1-methylpiperidin-3-yl)-1-oxa-4-azacyclotridecane-11,13-dione], for which the MIC against K. pneumoniae MP-546 is over 32 µg/mL; in the test on E. coli MP-4 it was 4 to 32 µg/mL (≈ 6.69 to 53.5 µM); against S. aureus MP-12 it was over 32 µg/mL; with A. baumannii MP-15 it was over 32 µg/mL; against P. aeruginosa MP-3, over 32 µg/mL.
With `CO[C@]1(C)C[C@@H](C)CN(C)[C@H]([C@@H]2CCCN(C(C)C)C2)COC(=O)C(C)(C)C(=O)[C@H](C)[C@H]1O[C@@H]1O[C@H](C)C[C@H](N(C)C)[C@H]1O` [Compound 90, (3R,6R,8R,9R,10R)-9-(((2S,3R,4S,6R)-4-(dimethylamino)-3-hydroxy-6-methyltetrahydro-2H-pyran-2-yl)oxy)-3-((R)-1-isopropylpiperidin-3-yl)-8-methoxy-4,6,8,10,12,12-hexamethyl-1-oxa-4-azacyclotridecane-11,13-dione], the minimum inhibitory concentration (MIC) was 4 to 32 µg/mL (≈ 6.39 to 51.1 µM) with K. pneumoniae MP-546; 4 to 32 µg/mL (≈ 6.39 to 51.1 µM) in the test with E. coli MP-4; over 32 µg/mL against S. aureus MP-12; over 32 µg/mL with A. baumannii MP-15; over 32 µg/mL in the test on P. aeruginosa MP-3.
Regarding `CO[C@]1(C)C[C@@H](C)CN(C)[C@H](C2CN(CC3COC3)C2)COC(=O)C(C)(C)C(=O)[C@H](C)[C@H]1O[C@@H]1O[C@H](C)C[C@H](N(C)C)[C@H]1O` [Compound 91, (3R,6R,8R,9R,10R)-9-(((2S,3R,4S,6R)-4-(dimethylamino)-3-hydroxy-6-methyltetrahydro-2H-pyran-2-yl)oxy)-8-methoxy-4,6,8,10,12,12-hexamethyl-3-(1-(oxetan-3-ylmethyl)azetidin-3-yl)-1-oxa-4-azacyclotridecane-11,13-dione], the MIC against K. pneumoniae MP-546 was 4 to 32 µg/mL (≈ 6.39 to 51.1 µM); in the test with E. coli MP-4, under 4 µg/mL; against S. aureus MP-12 it was over 32 µg/mL; with A. baumannii MP-15, over 32 µg/mL; in the test on P. aeruginosa MP-3 it was over 32 µg/mL.
Consider `CO[C@]1(C)C[C@@H](C)CN(C)[C@H](C2CCN(CC(F)(F)F)CC2)COC(=O)C(C)(C)C(=O)[C@H](C)[C@H]1O[C@@H]1O[C@H](C)C[C@H](N(C)C)[C@H]1O` [Compound 92, (3R,6R,8R,9R,10R)-9-(((2S,3R,4S,6R)-4-(dimethylamino)-3-hydroxy-6-methyltetrahydro-2H-pyran-2-yl)oxy)-8-methoxy-4,6,8,10,12,12-hexamethyl-3-(1-(2,2,2-trifluoroethyl)piperidin-4-yl)-1-oxa-4-azacyclotridecane-11,13-dione], for which the minimum inhibitory concentration (MIC) against K. pneumoniae MP-546 is over 32 µg/mL; in the test on E. coli MP-4, 4 to 32 µg/mL (≈ 6.01 to 48.1 µM); against S. aureus MP-12, 4 to 32 µg/mL (≈ 6.01 to 48.1 µM); with A. baumannii MP-15, over 32 µg/mL; against P. aeruginosa MP-3, over 32 µg/mL.
